# pIC50: −log10 of the molar value.
# System: SYO-1 complex spheroid growth, percent test/control
# Assay: Anticancer human tumor SYO-1 cell line growth inhibition [Asc];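 note: compound exposure lasted 7 days after spheroids grew 3 days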;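 for viability, T/C: 100% = DMSO vehicle control viability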
# Settings: for pIC50: curve of first compound; for viability, T/C: stronger effect = lower value
# Procedure, shortened: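 Complex spheroids combining tumor cells with HUVEC endothelial cells and human MSCs, at 37 degrees C, 5% CO2; agents tested alone or combined, half-log dilutions from at or near clinical Cmax, or 10 microM if Cmax unknown.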
# [1] = second compound 0.01 µM, first compound 0.0316 µM
# [2] = second compound 0.01 µM, first compound 0.1 µM
# [3] = second compound 0.01 µM, first compound 0.316 µM
# [4] = second compound 0.01 µM, first compound 1 µM
# [5] = second compound 0.0316 µM, first compound 0.0316 µM
# [6] = second compound 0.0316 µM, first compound 0.1 µM
# [7] = second compound 0.0316 µM, first compound 0.316 µM
# [8] = second compound 0.0316 µM, first compound 1 µM
# [9] = second compound 0.1 µM, first compound 0.0316 µM
# [10] = second compound 0.1 µM, first compound 0.1 µM
# [11] = second compound 0.1 µM, first compound 0.316 µM
# [12] = second compound 0.1 µM, first compound 1 µM
# [13] = second compound 0.316 µM, first compound 0.0316 µM
# [14] = second compound 0.316 µM, first compound 0.1 µM
# [15] = second compound 0.316 µM, first compound 0.316 µM
# [16] = second compound 0.316 µM, first compound 1 µM
# [17] = second compound 1 µM, first compound 0.0316 µM
# [18] = second compound 1 µM, first compound 0.1 µM
# [19] = second compound 1 µM, first compound 0.316 µM
# [20] = second compound 1 µM, first compound 1 µM
# [21] = second compound 0.01 µM, first compound 0.00316 µM
# [22] = second compound 0.01 µM, first compound 0.01 µM
# [23] = second compound 0.0316 µM, first compound 0.00316 µM
# [24] = second compound 0.0316 µM, first compound 0.01 µM
# [25] = second compound 0.1 µM, first compound 0.00316 µM
# [26] = second compound 0.1 µM, first compound 0.01 µM
# [27] = second compound 0.316 µM, first compound 0.00316 µM
# [28] = second compound 0.316 µM, first compound 0.01 µM
# [29] = second compound 1 µM, first compound 0.00316 µM
# [30] = second compound 1 µM, first compound 0.01 µM
structure (smiles),measurement,setting,value
C=CC(=O)N1CCN(c2nc(=O)n(-c3c(C)ccnc3C(C)C)c3nc(-c4c(O)cccc4F)c(F)cc23)C(C)C1 (stereo not given) + CNC(C)C(=O)NC1CN(S(=O)(=O)c2cccc(S(=O)(=O)N3CCC4CCC(C(=O)NC(c5ccccc5)c5ccccc5)N4C(=O)C(NC(=O)C(C)NC)C3)c2)CCC2CCC(C(=O)NC(c3ccccc3)c3ccccc3)N2C1=O,pIC50,second compound 0.01 µM,< 5.00
same,pIC50,second compound 0.0316 µM,< 5.00
same,pIC50,second compound 0.1 µM,< 5.00
same,pIC50,second compound 0.316 µM,< 5.00
same,pIC50,second compound 1 µM,< 5.00
same,"viability, T/C",[1],104%
same,"viability, T/C",[2],105%
same,"viability, T/C",[3],101%
same,"viability, T/C",[4],102%
same,"viability, T/C","second compound 0.01 µM, first compound 3.16 µM",90.3%
same,"viability, T/C","second compound 0.01 µM, first compound 10 µM",83.6%
same,"viability, T/C",[5],97.4%
same,"viability, T/C",[6],94.5%
same,"viability, T/C",[7],99.4%
same,"viability, T/C",[8],97.2%
same,"viability, T/C","second compound 0.0316 µM, first compound 3.16 µM",87.3%
same,"viability, T/C","second compound 0.0316 µM, first compound 10 µM",86.2%
same,"viability, T/C",[9],88.3%
same,"viability, T/C",[10],94.3%
same,"viability, T/C",[11],100%
same,"viability, T/C",[12],92.5%
same,"viability, T/C","second compound 0.1 µM, first compound 3.16 µM",98.1%
same,"viability, T/C","second compound 0.1 µM, first compound 10 µM",85.4%
same,"viability, T/C",[13],96.6%
same,"viability, T/C",[14],98%
same,"viability, T/C",[15],97.5%
same,"viability, T/C",[16],93.5%
same,"viability, T/C","second compound 0.316 µM, first compound 3.16 µM",87.4%
same,"viability, T/C","second compound 0.316 µM, first compound 10 µM",89.6%
same,"viability, T/C",[17],98.1%
same,"viability, T/C",[18],98.1%
same,"viability, T/C",[19],93.1%
same,"viability, T/C",[20],95.8%
same,"viability, T/C","second compound 1 µM, first compound 3.16 µM",93.5%
same,"viability, T/C","second compound 1 µM, first compound 10 µM",88%
COc1c(OCCCN2CCOCC2)ccc2c3n(c(=NC(=O)c4cnc(N)nc4)nc12)CCN3 + CNC(C)C(=O)NC1CN(S(=O)(=O)c2cccc(S(=O)(=O)N3CCC4CCC(C(=O)NC(c5ccccc5)c5ccccc5)N4C(=O)C(NC(=O)C(C)NC)C3)c2)CCC2CCC(C(=O)NC(c3ccccc3)c3ccccc3)N2C1=O,pIC50,second compound 0.01 µM,< 6.00
same,pIC50,second compound 0.0316 µM,< 6.00
same,pIC50,second compound 0.1 µM,< 6.00
same,pIC50,second compound 0.316 µM,< 6.00
same,pIC50,second compound 1 µM,< 6.00
same,"viability, T/C",[21],106%
same,"viability, T/C",[22],109%
same,"viability, T/C",[1],116%
same,"viability, T/C",[2],106%
same,"viability, T/C",[3],96%
same,"viability, T/C",[4],68.3%
same,"viability, T/C",[23],113%
same,"viability, T/C",[24],126%
same,"viability, T/C",[5],118%
same,"viability, T/C",[6],110%
same,"viability, T/C",[7],98.2%
same,"viability, T/C",[8],72.9%
same,"viability, T/C",[25],107%
same,"viability, T/C",[26],119%
same,"viability, T/C",[9],118%
same,"viability, T/C",[10],107%
same,"viability, T/C",[11],102%
same,"viability, T/C",[12],68.7%
same,"viability, T/C",[27],111%
same,"viability, T/C",[28],122%
same,"viability, T/C",[13],116%
same,"viability, T/C",[14],105%
same,"viability, T/C",[15],96.1%
same,"viability, T/C",[16],69.2%
same,"viability, T/C",[29],114%
same,"viability, T/C",[30],124%
same,"viability, T/C",[17],117%
same,"viability, T/C",[18],113%
same,"viability, T/C",[19],95.1%
same,"viability, T/C",[20],73.3%
NC(=O)C(=Cn1cnc(-c2cc(C(F)(F)F)cc(C(F)(F)F)c2)n1)c1cncnc1 + CNC(C)C(=O)NC1CN(S(=O)(=O)c2cccc(S(=O)(=O)N3CCC4CCC(C(=O)NC(c5ccccc5)c5ccccc5)N4C(=O)C(NC(=O)C(C)NC)C3)c2)CCC2CCC(C(=O)NC(c3ccccc3)c3ccccc3)N2C1=O,pIC50,second compound 0.01 µM,6.55
same,pIC50,second compound 0.0316 µM,6.54
same,pIC50,second compound 0.1 µM,6.59
same,pIC50,second compound 0.316 µM,6.62
same,pIC50,second compound 1 µM,6.70
same,"viability, T/C","second compound 0.01 µM, first compound 0.000949 µM",102%
same,"viability, T/C","second compound 0.01 µM, first compound 0.003 µM",101%
same,"viability, T/C","second compound 0.01 µM, first compound 0.00949 µM",111%
same,"viability, T/C","second compound 0.01 µM, first compound 0.03 µM",104%
same,"viability, T/C","second compound 0.01 µM, first compound 0.0949 µM",98%
same,"viability, T/C","second compound 0.01 µM, first compound 0.3 µM",47.1%
same,"viability, T/C","second compound 0.0316 µM, first compound 0.000949 µM",99.2%
same,"viability, T/C","second compound 0.0316 µM, first compound 0.003 µM",105%
same,"viability, T/C","second compound 0.0316 µM, first compound 0.00949 µM",106%
same,"viability, T/C","second compound 0.0316 µM, first compound 0.03 µM",108%
same,"viability, T/C","second compound 0.0316 µM, first compound 0.0949 µM",102%
same,"viability, T/C","second compound 0.0316 µM, first compound 0.3 µM",48.4%
same,"viability, T/C","second compound 0.1 µM, first compound 0.000949 µM",109%
same,"viability, T/C","second compound 0.1 µM, first compound 0.003 µM",106%
same,"viability, T/C","second compound 0.1 µM, first compound 0.00949 µM",102%
same,"viability, T/C","second compound 0.1 µM, first compound 0.03 µM",97.6%
same,"viability, T/C","second compound 0.1 µM, first compound 0.0949 µM",102%
same,"viability, T/C","second compound 0.1 µM, first compound 0.3 µM",42.6%
same,"viability, T/C","second compound 0.316 µM, first compound 0.000949 µM",103%
same,"viability, T/C","second compound 0.316 µM, first compound 0.003 µM",110%
same,"viability, T/C","second compound 0.316 µM, first compound 0.00949 µM",111%
same,"viability, T/C","second compound 0.316 µM, first compound 0.03 µM",105%
same,"viability, T/C","second compound 0.316 µM, first compound 0.0949 µM",105%
same,"viability, T/C","second compound 0.316 µM, first compound 0.3 µM",36.3%
same,"viability, T/C","second compound 1 µM, first compound 0.000949 µM",114%
same,"viability, T/C","second compound 1 µM, first compound 0.003 µM",106%
same,"viability, T/C","second compound 1 µM, first compound 0.00949 µM",111%
same,"viability, T/C","second compound 1 µM, first compound 0.03 µM",105%
same,"viability, T/C","second compound 1 µM, first compound 0.0949 µM",97.5%
same,"viability, T/C","second compound 1 µM, first compound 0.3 µM",23.6%
NC1CCC(NC2CC2c2ccccc2)CC1 (stereo not given) + CNC(C)C(=O)NC1CN(S(=O)(=O)c2cccc(S(=O)(=O)N3CCC4CCC(C(=O)NC(c5ccccc5)c5ccccc5)N4C(=O)C(NC(=O)C(C)NC)C3)c2)CCC2CCC(C(=O)NC(c3ccccc3)c3ccccc3)N2C1=O,pIC50,second compound 0.01 µM,< 7.00
same,pIC50,second compound 0.0316 µM,< 7.00
same,pIC50,second compound 0.1 µM,< 7.00
same,pIC50,second compound 0.316 µM,< 7.00
same,pIC50,second compound 1 µM,< 7.00
same,"viability, T/C","second compound 0.01 µM, first compound 0.000316 µM",109%
same,"viability, T/C","second compound 0.01 µM, first compound 0.001 µM",104%
same,"viability, T/C",[21],97.4%
same,"viability, T/C",[22],89.4%
same,"viability, T/C",[1],88.1%
same,"viability, T/C",[2],86.2%
same,"viability, T/C","second compound 0.0316 µM, first compound 0.000316 µM",106%
same,"viability, T/C","second compound 0.0316 µM, first compound 0.001 µM",94%
same,"viability, T/C",[23],89.7%
same,"viability, T/C",[24],85.6%
same,"viability, T/C",[5],87.5%
same,"viability, T/C",[6],87.5%
same,"viability, T/C","second compound 0.1 µM, first compound 0.000316 µM",102%
same,"viability, T/C","second compound 0.1 µM, first compound 0.001 µM",92.5%
same,"viability, T/C",[25],86.7%
same,"viability, T/C",[26],91.3%
same,"viability, T/C",[9],94.8%
same,"viability, T/C",[10],91%
same,"viability, T/C","second compound 0.316 µM, first compound 0.000316 µM",99.8%
same,"viability, T/C","second compound 0.316 µM, first compound 0.001 µM",97.5%
same,"viability, T/C",[27],90.5%
same,"viability, T/C",[28],90.3%
same,"viability, T/C",[13],86.6%
same,"viability, T/C",[14],86.2%
same,"viability, T/C","second compound 1 µM, first compound 0.000316 µM",103%
same,"viability, T/C","second compound 1 µM, first compound 0.001 µM",99.1%
same,"viability, T/C",[29],91.2%
same,"viability, T/C",[30],89.6%
same,"viability, T/C",[17],88.5%
same,"viability, T/C",[18],86.4%

# Source: PubChem BioAssay AID1963432 (Molecular Pharmacology Branch, DTP, NCI, 2024)
